Data: PMC4651778 (Journal of structural biology, 2015)

Columns and labels:
[1] = target: Liver Receptor Homolog-1 (LRH-1, NR5A2) (Homo sapiens, UniProt O00482); experiment: crystal structure; assay type: binding
[2] = target: T1, DAX-1 140-154 (Homo sapiens, UniProt P51843); experiment: SPR
T1 chain: PRQGSILYSLLTSSK

Liver Receptor Homolog-1 (LRH-1, NR5A2), sequence (O00482 294-541): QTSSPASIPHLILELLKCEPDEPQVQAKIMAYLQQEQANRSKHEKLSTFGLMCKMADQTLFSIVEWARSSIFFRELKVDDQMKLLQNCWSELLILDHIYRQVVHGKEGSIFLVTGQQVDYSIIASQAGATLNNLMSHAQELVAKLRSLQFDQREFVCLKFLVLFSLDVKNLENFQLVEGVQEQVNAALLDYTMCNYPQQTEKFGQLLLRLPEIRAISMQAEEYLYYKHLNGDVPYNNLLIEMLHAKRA

| Molecule | Kd [1] [nM] | Kd [2] [nM] |
| --- | --- | --- |
| CCCCCCCCCCCCCCCC(=O)OC[C@@H](COP(=O)(O)O[C@H]1[C@H](O)[C@@H](OP(=O)(O)O)[C@H](OP(=O)(O)O)[C@@H](OP(=O)(O)O)[C@H]1O)OC(=O)CCCCCCCCCCCCCCC [PIP3] | 120 ± 9 |  |
| LRH-1 LBD (protein) SIPHLILELLKCEPDEPQVQAKIMAYLQQEQANRSKHEKLSTFGLMCKMADQTLFSIVEWARSSIFFRELKVDDQMKLLQNCWSELLILDHIYRQVVHGKEGSIFLVTGQQVDYSIIASQAGATLNNLMSHAQELVAKLRSLQFDQREFVCLKFLVLFSLDVKNLENFQLVEGVQEQVNAALLDYTMCNYPQQTEKFGQLLLRLPEIRAISMQAEEYLYYKHLNGDVPYNNLLIEMLHAK |  | 90 |
